These results are taken from US6759207B2, “Fluorogenic or fluorescent reporter molecules and their applications for whole-cell fluorescence screening assays for caspases and other enzymes and the use thereof” (Cytovia, Inc., priority 1997, dated 2004).

Usually Km stands for the substrate concentration at which the rate is half of its maximum.

Each structure is given as a SMILES string.

Series [1] concerns the target T1, recombinant CPP32 (Homo sapiens, UniProt P42574).
T1 construct: made in house; host or cells: Sf9 insect cells, baculovirus vector
T1 sequence (P42574 29-175 limits assumed): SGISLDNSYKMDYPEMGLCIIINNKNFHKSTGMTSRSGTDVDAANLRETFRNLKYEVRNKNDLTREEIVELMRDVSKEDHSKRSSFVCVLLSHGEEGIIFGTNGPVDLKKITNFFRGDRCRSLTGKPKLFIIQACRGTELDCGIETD
T1 sequence (P42574 176-277 limits assumed): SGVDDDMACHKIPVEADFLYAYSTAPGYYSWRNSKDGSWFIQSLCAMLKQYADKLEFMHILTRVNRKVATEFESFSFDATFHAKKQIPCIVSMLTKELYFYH
Briefly: Fluorometric enzyme assay, cleavage of substrate by recombinant CPP32. In kind it is biochemical. The settings on record: for efficiency as substrate for CPP32: summary of Table 4; for CPP32 Vmax: 1-100 μM substrate, 37° C. As to the method:
(§1) The activities of N-(Z-VD)-N′-acetyl-Rhodamine 110, N-(Z-VAD)-N′-acetyl-Rhodamine 110, N-(Z-DEVD)-N′-acetyl-Rhodamine 110 SEQ ID NO:5, N-(Z-YVAD)-N-acetyl-Rhodamine 110 SEQ ID NO:2, (Z-VAD)2-Rhodamine 110 and (Z-YVAD)2-Rhodamine 110 SEQ ID NO:2 as synthetic substrates for recombinant CPP32 and ICE were measured in a fluorometric enzyme assay. […] See, Webb, N. R. et al., “Expression of proteins using recombinant Baculovirus,” Techniques 2:173-188 (1990). Cleavage of the synthetic substrates by the enzyme results in a fluorescent signal which is read in a spectrofluorometer or in a fluorometric microtiter plate reader. Using this assay, the Km and Vmax values were determined for each substrate with either CPP32 or ICE.
(§2) CPP32 and ICE dependent substrate cleavage was measured using the following buffer conditions: 100 mM HEPES pH 7.5, with 10% sucrose, 1% CHAPS, 5 mM glutathione, and 1-100 μM test substrate. Nonspecific enzyme cleavage was determined with the use of the specific CPP32 and ICE inhibitors consisted of an oligomer with the sequence Asp-Glu-Val-Asp or Tyr-Val-Ala-Asp, respectively, with an aldehyde group conjugated to the C-terminus. The assay for enzyme activity was typically carried out at 37° C. for 60 minutes.

The target of series [2] is T2, recombinant ICE (Homo sapiens, UniProt P29466).
T2 construct: made in house; host or cells: Sf9 insect cells, baculovirus vector
T2 sequence (P29466 120-297 limits assumed): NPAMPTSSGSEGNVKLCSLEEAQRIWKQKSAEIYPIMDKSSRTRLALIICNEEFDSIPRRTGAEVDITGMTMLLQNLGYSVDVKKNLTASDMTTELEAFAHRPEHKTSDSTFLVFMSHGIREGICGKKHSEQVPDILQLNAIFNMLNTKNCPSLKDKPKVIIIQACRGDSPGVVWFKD
T2 sequence (P29466 317-404 limits assumed): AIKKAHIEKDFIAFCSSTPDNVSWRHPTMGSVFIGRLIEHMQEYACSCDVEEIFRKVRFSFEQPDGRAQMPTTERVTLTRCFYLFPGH
The series can be described thus: Fluorometric enzyme assay, cleavage of substrate by recombinant ICE. In kind it is biochemical. As to conditions: for ICE Vmax / Km: 1-100 μM substrate, 37° C.; for Km: NA = no activity observed at 1-100 μM substrate, 3 h incubation; for efficiency as substrate for ICE: summary of Table 4. The protocol: as §1, §2

Series [3] concerns the target T3, recombinant human caspase-3 (Homo sapiens, UniProt P42574).
T3 sequence (P42574 29-175 limits assumed): T1 sequence (P42574 29-175 limits assumed)
T3 sequence (P42574 176-277 limits assumed): T1 sequence (P42574 176-277 limits assumed)
The series can be described thus: Cleavage of caspase-3 substrates by recombinant human caspase-3. In kind it is biochemical. As to conditions: 10 μM or 50 μM substrate, 37° C. As to the method:
(§3) The caspase substrates were assayed by recombinant caspase-3 and by lysates prepared from apoptotic HL-60 cells. The assays were carried out at 37° C. in 96-well plates in a 100 μL incubation containing 30 μL of caspase-3 preparation or cell lysate, 10 μM or 50 μM of the substrate, and caspase assay buffer (40 mM 1,4-piperazinebis(ethansulfonic acid) (PIPES, Aldrich Chemical Company) pH 7.2; 100 mM NaCl; 10% sucrose; 0.1% CHAPS; 1 mM EDTA; 10 mM DTT). At the end of the incubation period, the fluorescence was measured on a Bio-Tek FL500 fluorescence microplate reader using excitation and emission wavelengths of 485 and 530 nm, respectively. Two different controls were run: 1) an enzyme blank consisting of samples containing substrate, but without enzyme or cell lysate; 2) an inhibitor control, consisting of samples which contained the caspase inhibitor, Ac-DEVD-CHO (f.c., 10 μM).

Series [4] relates to apoptotic HL-60 cell lysates. The series can be described thus: Cleavage of caspase-3 substrates by apoptotic HL-60 cell lysates. In kind it is biochemical. As to conditions: 10 μM or 50 μM substrate, 37° C., vinblastine treated HL-60 cell lysates. As to the method:
as §3

Series [5] can be described thus: Fluorescence of modified Rhodamine dyes (spectrometry and spectrofluorometry). Type of series: physicochemical. As to the method:
Modified Rhodamine dyes were evaluated using both conventional spectrometry and spectrofluorometry. For both types of analysis the dyes were dissolved in either methanol or 50 mM Tris at final dye concentrations ranging from 10 nM to 100 μM. An absorbance spectrum from wavelengths of 200 nm to 700 nm was determined for each dye using a Beckman DU-7000 spectrophotometer. The dyes all had absorbance peaks at around 470 to 480 nm. This wavelength was chosen as the fluorescence excitation wavelength and a full fluorescence emission spectrum was determined using a Hitachi F-2000 spectrofluorometer. For each dye, the emission peak was around 520 nm and the fluorescent output was measured under the conditions tested (see Table 1).

The test system of series [6] is HL-60 cells. Briefly: Uptake and retention of modified Rhodamine dyes by HL-60 cells (epifluorescence microscopy). As to conditions: 10 μM or 50 μM dye; for staining of HL-60 cells: 37° C., serum-free Iscove's medium; for leakage of the dye into the medium / retention in cells: after washing. In kind it is cell-based. The protocol: HL-60 cells were placed in 5 ml of Iscove's medium (without serum or phenol-red) containing 10 μM or 50 μM N-octyloxycarbonyl-Rhodamine 110, N-decyloxycarbonyl-Rhodamine-110, N-dodecyloxycarbonyl-Rhodamine-110, N-hexyloxycarbonyl-Rhodamine-110, N-(ethylthio)carbonyl-Rhodamine 110 or Rhodamine 110. The cells were incubated for varying times at 37° C. in a CO2 incubator, recovered by centrifugation, and washed in 50 mL of ice-cold medium. The cells were re-centrifuged and the final pellet was resuspended in 50 μL of fresh medium. Aliquots of each cell suspension were placed in microslides and viewed on a Nikon inverted microscope with epifluorescent illumination.

Regarding `CC(C)[C@H](NC(=O)OCc1ccccc1)C(=O)N[C@@H](C)C(=O)N[C@@H](CC(=O)O)C(=O)Nc1ccc2c(c1)Oc1cc(NC(=O)[C@H](CC(=O)O)NC(=O)[C@H](C)NC(=O)[C@@H](NC(=O)OCc3ccccc3)C(C)C)ccc1C21OC(=O)c2ccccc21` [(Z-VAD)2-Rhodamine 110, (Z-Val-Ala-Asp)2-Rhodamine 110], the “efficiency as substrate for CPP32” value in series [1] was “not for CPP32”. In series [2], the “ICE Vmax” value came out at 9 nmol/min, the Km amounted to 21 µM and the “efficiency as substrate for ICE” value is reported as “efficient substrates”.

On to `CC(C)[C@H](NC(=O)[C@H](Cc1ccc(O)cc1)NC(=O)OCc1ccccc1)C(=O)N[C@@H](C)C(=O)N[C@@H](CC(=O)O)C(=O)Nc1ccc2c(c1)Oc1cc(NC(=O)[C@H](CC(=O)O)NC(=O)[C@H](C)NC(=O)[C@@H](NC(=O)[C@H](Cc3ccc(O)cc3)NC(=O)OCc3ccccc3)C(C)C)ccc1C21OC(=O)c2ccccc21` [(Z-YVAD)2-Rhodamine 110, (Z-Tyr-Val-Ala-Asp)2-Rhodamine 110], for which the “efficiency as substrate for CPP32” value in series [1] was “not for CPP32”. In series [2], the “ICE Vmax” value was 14 nmol/min, the Km worked out at 6 µM and the “efficiency as substrate for ICE” value is “efficient substrates”.

For the compound `CC(=O)Nc1ccc2c(c1)Oc1cc(NC(=O)[C@H](CC(=O)O)NC(=O)[C@@H](NC(=O)[C@H](CCC(=O)O)NC(=O)[C@H](CC(=O)O)NC(=O)OCc3ccccc3)C(C)C)ccc1C21OC(=O)c2ccccc21` (stereo partly drawn) [N-(Z-DEVD)-N′-Ac-Rhodamine 110, N-(Z-Asp-Glu-Val-Asp)-N′-acetyl-Rhodamine 110], in series [1], the “CPP32 Vmax” value came to 160 nmol/min and the “efficiency as substrate for CPP32” value is listed as “efficient substrate”. In addition, in series [2], the “ICE Vmax” value is recorded as 9 nmol/min, the Km is 12 µM and the “efficiency as substrate for ICE” value is “efficient substrate”.

With `CC(=O)Nc1ccc2c(c1)Oc1cc(NC(=O)C(CC(=O)O)NC(=O)C(C)NC(=O)C(NC(=O)OCc3ccccc3)C(C)C)ccc1C21OC(=O)c2ccccc21` (stereo not drawn) [N-(Z-VAD)-N′-Ac-Rhodamine 110, N-(Z-Val-Ala-Asp)-N′-acetyl-Rhodamine 110], the “efficiency as substrate for CPP32” value in series [1] was “not for CPP32”. In addition, in series [2], the “ICE Vmax” value worked out at 4 nmol/min, the Km worked out at 70 µM and the “efficiency as substrate for ICE” value is listed as “efficient substrates”.

Consider `CC(=O)Nc1ccc2c(c1)Oc1cc(NC(=O)C(CC(=O)O)NC(=O)C(NC(=O)OCc3ccccc3)C(C)C)ccc1C21OC(=O)c2ccccc21` (stereo not drawn) [N-(Z-VD)-N′-Ac-Rhodamine 110, N-(Z-Val-Asp)-N′-acetyl-Rhodamine 110], for which, in series [1], the “CPP32 Vmax” value amounted to 11 nmol/min and the “efficiency as substrate for CPP32” value was “efficient substrate”. For the same compound, the “efficiency as substrate for ICE” value in series [2] is listed as “not for ICE”.

On to `CC(=O)Nc1ccc2c(c1)Oc1cc(NC(=O)[C@H](CC(=O)O)NC(=O)[C@H](C)NC(=O)[C@@H](NC(=O)[C@H](Cc3ccc(O)cc3)NC(=O)OCc3ccccc3)C(C)C)ccc1C21OC(=O)c2ccccc21` (stereo partly drawn) [N-(Z-YVAD)-N′-Ac-Rhodamine 110, N-(Z-Tyr-Val-Ala-Asp)-N′-acetyl-Rhodamine 110], for which the “efficiency as substrate for CPP32” value in series [1] is on record as “not for CPP32”. Besides, in series [2], the “ICE Vmax” value worked out at 96 nmol/min, the Km came to 32 µM and the “efficiency as substrate for ICE” value was “efficient substrates”.

With `CCSC(=O)Nc1ccc2c(c1)Oc1cc(NC(=O)[C@H](CC(=O)O)NC(=O)[C@@H](NC(=O)[C@H](CCC(=O)O)NC(=O)[C@H](CC(=O)O)NC(C)=O)C(C)C)ccc1C21OC(=O)c2ccccc21` (stereo partly drawn) [N-Ac-DEVD-N′-(ethylthio)carbonyl-R110, N-(Ac-Asp-Glu-Val-Asp)-N′-(ethylthio)carbonyl-Rhodamine 110], the “Cleavage by Caspase-3” value in series [3] is “Good”. Besides, in series [4], the “Cleavage by Apoptotic Lysates” value was “Good”.

Consider `CCOC(=O)Nc1ccc2c(c1)Oc1cc(NC(=O)[C@H](CC(=O)O)NC(=O)[C@@H](NC(=O)[C@H](CCC(=O)O)NC(=O)[C@H](CC(=O)O)NC(C)=O)C(C)C)ccc1C21OC(=O)c2ccccc21` (stereo partly drawn) [N-Ac-DEVD-N′-ethoxycarbonyl-R110, N-(Ac-Asp-Glu-Val-Asp)-N′-ethoxycarbonyl-Rhodamine 110], for which, in series [3], the “Cleavage by Caspase-3” value was “Good”. Also, the “Cleavage by Apoptotic Lysates” value in series [4] is reported as “Good”.

As for `CCCCCCCCCCCCOC(=O)Nc1ccc2c(c1)Oc1cc(N)ccc1C21OC(=O)c2ccccc21` (stereo not drawn) [N-Dodecyloxycarbonyl-Rhodamine 110, N-Dodecyloxycarbonyl-Rhodamine-110], in series [5] (Test Conc. 1 μM, MeOH), the “Peak Emission Wavelength” value amounted to 520 nm, the “Peak Excitation Wavelength” value is listed as 480 nm and the “Signal Amplitude” value was found to be 640. In series [6], the “staining of HL-60 cells” value is “stained HL-60 cells intensely” and the “leakage of the dye into the medium / retention in cells” value is “almost no leakage of the dye into the medium”.

As to `CCCCCCOC(=O)Nc1ccc2c(c1)Oc1cc(N)ccc1C21OC(=O)c2ccccc21` (stereo not drawn) [N-Hexyloxycarbonyl-Rhodamine 110, N-Hexyloxycarbonyl-Rhodamine-110], in series [5] (Test Conc. 0.1 μM, MeOH), the “Peak Emission Wavelength” value is 520 nm, the “Peak Excitation Wavelength” value is reported as 465 nm and the “Signal Amplitude” value is given as 109. For the same compound, in series [6], the “staining of HL-60 cells” value is on record as “stained HL-60 cells less intensely” and the “leakage of the dye into the medium / retention in cells” value is given as “still well-retained”.

In the case of `CCCCCCCCOC(=O)Nc1ccc2c(c1)Oc1cc(N)ccc1C21OC(=O)c2ccccc21` (stereo not drawn) [N-Octyloxycarbonyl-Rhodamine 110], in series [5] (Test Conc. 1 μM, MeOH), the “Peak Emission Wavelength” value is given as 520 nm, the “Peak Excitation Wavelength” value is 470 nm and the “Signal Amplitude” value was 850. Moreover, in series [6], the “staining of HL-60 cells” value was “stained HL-60 cells intensely” and the “leakage of the dye into the medium / retention in cells” value is recorded as “almost no leakage of the dye into the medium”.

For the compound `Cl.N=c1ccc2c(-c3ccccc3C(=O)O)c3ccc(N)cc3oc-2c1` [Rhodamine 110, reference compound], in series [5] (Test Conc. 0.01 μM, Tris), the “Peak Emission Wavelength” value is 520 nm, the “Peak Excitation Wavelength” value came to 490 nm and the “Signal Amplitude” value was determined as 284. Also, in series [6], the “staining of HL-60 cells” value is given as “low intensity of cellular staining” and the “leakage of the dye into the medium / retention in cells” value is reported as “quickly leaked out of the cells”.
